According to US9796706B2, “Inhibitors of Jun N-terminal kinase” (IMAGO PHARMACEUTICALS, INC., priority 2009, dated 2017):

Key:
[1] = test system: phosphorylated c-jun (p-cjun); assay: Inhibition of kainic acid induced phospho-cJun upregulation in mice hippocampi; type: in vivo
Method: Female, FVB/N mice (Taconic) were treated by oral gavage (PO) with one 300 mg/kg dose of N-(4-chloro-3-(1H-1,2,4-triazol-5-yl)thiophen-2-yl)-2-(isoquinolin-5-yl)acetamide or vehicle (0.9% saline) at a 5 ml/kg dose volume. Control animals were dosed with vehicle. Thirty minutes later animals were treated interperitoneally with 25 mg/kg of kainic acid or saline at a 10 ml/kg dose volume. Kainic acid was formulated in 0.9% saline. Four hours after kainic acid administration animals were euthanized by carbon dioxide and were transcardially perfused with 0.9% saline. Brains were removed, and separated into left and right hemispheres. The hippocampus was dissected from the right hemisphere, frozen on dry ice and kept at −80° C. until used for quantitation of p-cjun levels.
Preweighed hippocampus tissues were homogenized in cold cell extraction buffer (CEB) containing 1% Triton X-100, 0.1% SDS, 0.5% deoxycholate, 20 mM Na4P2O7, 2 mM Na3VO4, 0.1% SDS and protease inhibitors (PI, 2 mg/mL aprotinin and 1 mg/mL leupeptin) at a ratio of 9:1 CEB to wet tissue weight. Homogenized samples were analyzed using PathScan Phospho-c-Jun (Ser63) Sandwich ELISA Kit II from Cell Signaling Technology. Samples were diluted 1:10 in sample diluent provided in the kit. An 8-point standard curve was prepared by diluting a 10 ng/mL phos-c-Jun standard 1:3 in 10% CEB/PI in sample diluent. Samples and standards were added at 100 μL per well to prewetted ELISA plates which contain a phos-c-jun (ser63)-specific rabbit monoclonal capture antibody and incubated overnight at 4° C. The plate was then allowed to warm to room temperature and washed three times using TBS+0.05% Tween 20 (TTBS). To each well were added 100 μL of a mouse monoclonal c-Jun detection antibody and the plate was incubated at 37° C. for 1 hour. The plate was washed three times in TTBS, then 100 μL per well of an anti-mouse IgG HRP-linked antibody was added. […] The colorimetric reaction was read using a Molecular Devices Spectramax plate reader and sample data was calculated from the standard curve fit to a 4-parameter function.

[2] = molecular target: JNK2 (Homo sapiens (Human), UniProt P45984); assay: JNK2 TR-FRET kinase assay (Example 14); type: biochemical; conditions: procedures of Example 14 (TR-FRET)
JNK2, sequence (P45984 whole entry, species assumed, canonical isoform): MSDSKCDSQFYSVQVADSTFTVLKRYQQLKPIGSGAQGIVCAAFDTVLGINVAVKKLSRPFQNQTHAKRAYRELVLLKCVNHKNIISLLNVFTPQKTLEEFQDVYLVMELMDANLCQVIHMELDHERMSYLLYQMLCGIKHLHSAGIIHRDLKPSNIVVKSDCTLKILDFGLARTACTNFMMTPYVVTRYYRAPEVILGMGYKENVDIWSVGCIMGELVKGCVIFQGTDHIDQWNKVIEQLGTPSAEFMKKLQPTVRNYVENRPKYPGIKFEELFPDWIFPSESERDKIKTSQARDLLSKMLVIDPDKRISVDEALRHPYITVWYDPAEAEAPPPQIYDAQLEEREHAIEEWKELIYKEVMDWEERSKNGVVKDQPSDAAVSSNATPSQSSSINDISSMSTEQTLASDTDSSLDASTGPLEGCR
Procedure, shortened: (§1)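 Two TR-FRET formats were used for each JNK isoform. In the direct one, preactivated aJNK phosphorylated EPIW-1 at about 1 mM final ATP (RT, 15 min). Both were EDTA-quenched and read by HTRF.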

[3] = molecular target: JNK3 (Homo sapiens (Human), UniProt P53779); assay: JNK3 TR-FRET kinase assay (Example 14); type: biochemical; conditions: procedures of Example 14 (TR-FRET)
JNK3, sequence (P53779 whole entry, species assumed): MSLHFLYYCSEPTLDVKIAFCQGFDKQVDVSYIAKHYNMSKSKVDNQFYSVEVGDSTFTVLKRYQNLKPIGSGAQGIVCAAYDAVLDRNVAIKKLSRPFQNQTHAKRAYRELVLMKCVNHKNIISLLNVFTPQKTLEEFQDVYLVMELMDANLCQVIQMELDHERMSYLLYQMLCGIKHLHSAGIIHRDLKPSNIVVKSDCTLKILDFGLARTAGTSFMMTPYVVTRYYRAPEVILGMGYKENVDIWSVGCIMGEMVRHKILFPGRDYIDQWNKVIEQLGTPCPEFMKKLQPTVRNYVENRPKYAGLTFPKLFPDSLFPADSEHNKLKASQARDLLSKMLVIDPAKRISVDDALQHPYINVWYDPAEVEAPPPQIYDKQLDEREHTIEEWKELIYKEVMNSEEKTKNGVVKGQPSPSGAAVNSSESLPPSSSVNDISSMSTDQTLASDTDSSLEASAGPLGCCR
Procedure, shortened: as §1

[4] = molecular target: JNK1 (Homo sapiens (Human), UniProt P45983); assay: JNK1 TR-FRET kinase assay (Example 14); type: biochemical; conditions: procedures of Example 14 (TR-FRET)
JNK1, sequence (P45983 other isoform, or with tags, fused parts or gaps isoform P45983-2, species assumed): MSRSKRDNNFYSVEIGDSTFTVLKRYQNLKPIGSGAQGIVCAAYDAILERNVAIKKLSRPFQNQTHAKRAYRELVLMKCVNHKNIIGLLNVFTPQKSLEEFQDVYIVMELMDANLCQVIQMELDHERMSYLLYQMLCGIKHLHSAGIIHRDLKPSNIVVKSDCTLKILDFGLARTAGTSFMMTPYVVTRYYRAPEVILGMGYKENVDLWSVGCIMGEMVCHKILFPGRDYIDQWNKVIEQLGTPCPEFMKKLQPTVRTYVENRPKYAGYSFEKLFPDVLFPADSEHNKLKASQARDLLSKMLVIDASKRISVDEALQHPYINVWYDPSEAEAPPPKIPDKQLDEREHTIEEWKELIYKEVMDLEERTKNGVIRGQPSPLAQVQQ
Procedure, shortened: as §1

IC50 [2] | IC50 [3] | IC50 [4] | Compound | reduction of p-cjun in the hippocampus ([1]; FVB mice, 300 mg/kg, 4 hours after treatment with kainic acid, statistically significant (unpaired t-test)) | p-cJun Mean ([1]; female FVB/N mice, 300 mg/kg PO 30 min before 25 mg/kg kainic acid i.p., hippocampus 4 h after kainic acid) | p-cJun % of Vehicle ([1]; female FVB/N mice, 300 mg/kg PO, hippocampus 4 h after kainic acid, relative to kainic acid + vehicle group)
< 100 nM | < 100 nM | < 100 nM | N#Cc1csc(NC(=O)Cc2cccc3ncccc23)c1-c1nnc[nH]1 [N-(4-cyano-3-(4H-1,2,4-triazol-3-yl)thiophen-2-yl)-2-(quinolin-5-yl)acetamide] | – | – | –
100 to 10000 nM | 100 to 10000 nM | 100 to 10000 nM | COc1ccc(CC(=O)Nc2ccsc2-c2nc(C3CC3)n[nH]2)cc1 [N-(2-(3-cyclopropyl-1H-1,2,4-triazol-5-yl)thiophen-3-yl)-2-(4-methoxyphenyl)acetamide] | – | – | –
100 to 10000 nM | 100 to 10000 nM | < 100 nM | O=C(Cc1ccc(C(F)(F)F)c2ncccc12)Nc1scc(Cl)c1-c1ncn[nH]1 [N-(4-chloro-3-(1H-1,2,4-triazol-5-yl)thiophen-2-yl)-2-(8-(trifluoromethyl)quinolin-5-yl)acetamide] | – | – | –
< 100 nM | < 100 nM | < 100 nM | O=C(Cc1ccc(F)c2cnccc12)Nc1scc(Br)c1-c1ncn[nH]1 [N-(4-bromo-3-(1H-1,2,4-triazol-5-yl)thiophen-2-yl)-2-(8-fluoroisoquinolin-5-yl)acetamide] | – | – | –
< 100 nM | < 100 nM | < 100 nM | Cc1n[nH]c(-c2c(Cl)csc2NC(=O)CN2C(=O)CCc3ncccc32)n1 [N-(4-chloro-3-(3-methyl-1H-1,2,4-triazol-5-yl)thiophen-2-yl)-2-(2-oxo-3,4-dihydro-1,5-naphthyridin-1(2H)-yl)acetamide] | – | – | –
< 100 nM | < 100 nM | < 100 nM | O=C(CN1C(=O)CCc2ncccc21)Nc1scc(Br)c1-c1ncco1 [N-(4-bromo-3-(oxazol-2-yl)thiophen-2-yl)-2-(2-oxo-3,4-dihydro-1,5-naphthyridin-1(2H)-yl)acetamide] | – | – | –
< 100 nM | < 100 nM | < 100 nM | O=C(Cn1c(=O)ccc2ccc(C(F)(F)F)cc21)Nc1scc(Br)c1-c1ncn[nH]1 [N-(4-bromo-3-(1H-1,2,4-triazol-5-yl)thiophen-2-yl)-2-(2-oxo-7-(trifluoromethyl)quinolin-1(2H)-yl)acetamide] | – | – | –
< 100 nM | < 100 nM | < 100 nM | O=C(Cc1cccc2ncccc12)Nc1scc(Br)c1-c1ncn[nH]1 [N-(4-bromo-3-(1H-1,2,4-triazol-5-yl)thiophen-2-yl)-2-(quinolin-5-yl)acetamide] | – | – | –
< 100 nM | < 100 nM | < 100 nM | Cc1n[nH]c(-c2c(C)csc2NC(=O)CN2C(=O)CCc3ccccc32)n1 [N-(4-methyl-3-(3-methyl-1H-1,2,4-triazol-5-yl)thiophen-2-yl)-2-(2-oxo-3,4-dihydroquinolin-1(2H)-yl)acetamide] | – | – | –
< 100 nM | < 100 nM | < 100 nM | O=C(Cn1c(=O)ccc2cc(Cl)ccc21)Nc1scc(Br)c1-c1ncn[nH]1 [N-(4-bromo-3-(1H-1,2,4-triazol-5-yl)thiophen-2-yl)-2-(6-chloro-2-oxoquinolin-1(2H)-yl)acetamide] | – | – | –
100 to 10000 nM | 100 to 10000 nM | 100 to 10000 nM | Cc1n[nH]c(-c2c(C)csc2NC(=O)Cc2ccc(OCCCN3CCCCC3)cc2)n1 [N-(4-methyl-3-(3-methyl-1H-1,2,4-triazol-5-yl)thiophen-2-yl)-2-(4-(3-(piperidin-1-yl)propoxy)phenyl)acetamide] | – | – | –
100 to 10000 nM | 100 to 10000 nM | 100 to 10000 nM | COc1ccc(CC(=O)Nc2scc(C)c2-c2nc(C)n[nH]2)cc1 [2-(4-methoxyphenyl)-N-(4-methyl-3-(3-methyl-1H-1,2,4-triazol-5-yl)thiophen-2-yl)acetamide] | – | – | –
< 100 nM | < 100 nM | < 100 nM | N#Cc1csc(NC(=O)CN2C(=O)CCc3ncccc32)c1-c1nc[nH]n1 [N-(4-cyano-3-(1H-1,2,4-triazol-3-yl)thiophen-2-yl)-2-(2-oxo-3,4-dihydro-1,5-naphthyridin-1(2H)-yl)acetamide] | – | – | –
> 50000 nM | > 10000 nM | > 10000 nM | Cn1ccc(-c2sccc2NC(=O)Cc2cccc3ccccc23)n1 [N-(2-(1-methyl-1H-pyrazol-3-yl)thiophen-3-yl)-2-(naphthalen-1-yl)acetamide] | – | – | –
100 to 10000 nM | 100 to 10000 nM | < 100 nM | O=C(CN1C(=O)CCc2ccccc21)Nc1sccc1-c1ncn[nH]1 [N-(3-(1H-1,2,4-triazol-5-yl)thiophen-2-yl)-2-(2-oxo-3,4-dihydroquinolin-1(2H)-yl)acetamide] | – | – | –
> 50000 nM | > 50000 nM | > 50000 nM | Cn1ncnc1-c1sccc1NC(=O)Cc1cccc2ccccc12 [N-(2-(1-methyl-1H-1,2,4-triazol-5-yl)thiophen-3-yl)-2-(naphthalen-1-yl)acetamide] | – | – | –
< 100 nM | < 100 nM | < 100 nM | N#Cc1csc(NC(=O)Cn2c(=O)ccc3cc(C(F)(F)F)ccc32)c1-n1nccn1 [N-(4-cyano-3-(2H-1,2,3-triazol-2-yl)thiophen-2-yl)-2-(2-oxo-6-(trifluoromethyl)quinolin-1(2H)-yl)acetamide] | – | – | –
< 100 nM | < 100 nM | < 100 nM | N#Cc1ccc2c(ccc(=O)n2CC(=O)Nc2scc(Br)c2-c2ncn[nH]2)c1 [N-(4-bromo-3-(1H-1,2,4-triazol-5-yl)thiophen-2-yl)-2-(6-cyano-2-oxoquinolin-1(2H)-yl)acetamide] | – | – | –
100 to 10000 nM | < 100 nM | < 100 nM | O=C(CN1C(=O)CCc2ncccc21)Nc1scc(Br)c1-c1nccs1 [N-(4-bromo-3-(thiazol-2-yl)thiophen-2-yl)-2-(2-oxo-3,4-dihydro-1,5-naphthyridin-1(2H)-yl)acetamide] | – | – | –
> 50000 nM | > 50000 nM | > 50000 nM | COCn1nnc(-c2ccsc2NC(=O)Cc2ccc(OC)cc2)n1 [N-(3-(2-(methoxymethyl)-2H-tetrazol-5-yl)thiophen-2-yl)-2-(4-methoxyphenyl)acetamide] | – | – | –
< 100 nM | < 100 nM | < 100 nM | O=C(Cn1c(=O)ccc2nc(C(F)(F)F)ccc21)Nc1scc(Cl)c1-c1ncn[nH]1 [N-(4-chloro-3-(1H-1,2,4-triazol-5-yl)thiophen-2-yl)-2-(2-oxo-6-(trifluoromethyl)-1,5-naphthyridin-1(2H)-yl)acetamide] | – | – | –
100 to 10000 nM | 100 to 10000 nM | 100 to 10000 nM | O=C(Cc1cccc2cnccc12)Nc1scnc1-c1ncn[nH]1 [N-(4-(1H-1,2,4-triazol-5-yl)thiazol-5-yl)-2-(isoquinolin-5-yl)acetamide] | – | – | –
100 to 10000 nM | 100 to 10000 nM | 100 to 10000 nM | Cc1csc(NC(=O)Cc2cccc3nccnc23)c1-c1ncn[nH]1 [N-(4-methyl-3-(1H-1,2,4-triazol-5-yl)thiophen-2-yl)-2-(quinoxalin-5-yl)acetamide] | – | – | –
> 10000 nM | 100 to 10000 nM | 100 to 10000 nM | COc1nc(-c2sccc2NC(=O)Cc2cccc3cnccc23)cs1 [2-(isoquinolin-5-yl)-N-(2-(2-methoxythiazol-4-yl)thiophen-3-yl)acetamide] | – | – | –
< 100 nM | < 100 nM | < 100 nM | CN(C)CCCn1cnc(-c2c(Cl)csc2NC(=O)Cn2c(=O)ccc3cc(C(F)(F)F)ccc32)n1 [N-(4-chloro-3-(1-(3-(dimethylamino)propyl)-1H-1,2,4-triazol-3-yl)thiophen-2-yl)-2-(2-oxo-6-(trifluoromethyl)quinolin-1(2H)-yl)acetamide] | – | – | –

Compound | IC50 [2] | IC50 [3] | IC50 [4] | reduction of p-cjun in the hippocampus ([1]; FVB mice, 300 mg/kg, 4 hours after treatment with kainic acid, statistically significant (unpaired t-test)) | p-cJun Mean ([1]; female FVB/N mice, 300 mg/kg PO 30 min before 25 mg/kg kainic acid i.p., hippocampus 4 h after kainic acid) | p-cJun % of Vehicle ([1]; female FVB/N mice, 300 mg/kg PO, hippocampus 4 h after kainic acid, relative to kainic acid + vehicle group)
O=C(Cc1cccc2cnccc12)Nc1scc(Cl)c1-c1ncn[nH]1 [N-(4-chloro-3-(1H-1,2,4-triazol-5-yl)thiophen-2-yl)-2-(isoquinolin-5-yl)acetamide] | < 100 nM | < 100 nM | < 100 nM | 51% | 0.927 ng/mL | 49.2%
